Source: ChEMBL document CHEMBL3351635, “Novel nitro(triazole/imidazole)-based heteroarylamides/sulfonamides as potential antitrypanosomal agents” (Eur J Med Chem, 2014)

Key:
[1] = Selectivity index, ratio of IC50 for rat L6 cells to IC50 for bloodstream forms of Trypanosoma brucei rhodesiense STIB 900; format: toxicity, cell-based; conditions: read-out: Ratio IC50
[2] = Selectivity index, ratio of IC50 for rat L6 cells to IC50 for trypomastigote forms of Trypanosoma cruzi Tulahuen C2C4 infected in rat L6 cells; format: toxicity, cell-based; conditions: read-out: Ratio IC50
L6 = test: Cytotoxicity against rat L6 cells after 72 hrs by alamar blue assay; format: cell-based; conditions: L6, 72 h
Trypanosoma cruzi [3] = test: Antiparasitic activity against trypomastigote forms of Trypanosoma cruzi Tulahuen C2C4 infected in rat L6 cells assessed as inhibition of growth after 96 hrs by inverted microscopy; format: functional, organism-based; conditions: Tulahuen C2C4, L6, 96 h
Trypanosoma cruzi [4] = test: Ratio of benznidazol IC50 to compound IC50 for trypomastigote forms of Trypanosoma cruzi Tulahuen C2C4 infected in rat L6 cells assessed as inhibition of growth after 96 hrs by inverted microscopy; format: functional
[5] = test system: Trypanosoma brucei brucei; test: Ratio of IC50 for bloodstream forms of Trypanosoma brucei brucei Lister 427 clone 221a overexpressing type I nitroreductase in absence of tetracycline to IC50 for bloodstream forms of Trypanosoma brucei brucei Lister 427 clone 221a overexpressing type I nitroreductase in presence of tetracycline; format: functional
[6] = target: Sterol 14-alpha demethylase (Trypanosoma cruzi (strain CL Brener), UniProt Q7Z1V1); test: Binding affinity to Trypanosoma cruzi CYP51
Chain of Sterol 14-alpha demethylase (Q7Z1V1 whole entry): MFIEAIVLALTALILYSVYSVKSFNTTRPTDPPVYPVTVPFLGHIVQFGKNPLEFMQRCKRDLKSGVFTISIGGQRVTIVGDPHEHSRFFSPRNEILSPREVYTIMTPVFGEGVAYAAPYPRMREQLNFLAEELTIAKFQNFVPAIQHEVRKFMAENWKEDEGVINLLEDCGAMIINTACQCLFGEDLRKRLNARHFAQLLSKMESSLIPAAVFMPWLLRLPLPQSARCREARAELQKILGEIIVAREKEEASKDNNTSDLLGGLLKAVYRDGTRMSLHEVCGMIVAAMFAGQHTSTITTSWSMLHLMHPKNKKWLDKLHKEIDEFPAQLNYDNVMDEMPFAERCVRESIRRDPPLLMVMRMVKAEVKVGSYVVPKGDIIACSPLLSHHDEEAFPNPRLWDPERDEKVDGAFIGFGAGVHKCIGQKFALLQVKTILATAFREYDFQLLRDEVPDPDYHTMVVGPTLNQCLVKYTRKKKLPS

[7] = Selectivity index, ratio of IC50 for rat L6 cells to IC50 for axenic amastigote forms of Leishmania donovani MHOM/ET/67/L82; format: toxicity, cell-based; conditions: read-out: Ratio IC50
[8] = test system: Trypanosoma brucei brucei; test: Trypanocidal activity against bloodstream forms of Trypanosoma brucei brucei Lister 427 clone 221a overexpressing type I nitroreductase assessed as inhibition of proliferation after 3 days by resazurin assay in absence of tetracycline; format: functional, organism-based; conditions: 72 h
Leishmania donovani = test: Antiparasitic activity against axenic amastigote forms of Leishmania donovani MHOM/ET/67/L82 assessed as inhibition of growth after 72 hrs by resazurin assay; format: functional, organism-based; conditions: MHOM/ET/67/L82, 72 h
[9] = test system: Trypanosoma brucei brucei; test: Trypanocidal activity against wild type bloodstream forms of Trypanosoma brucei brucei Lister 427 clone 221a assessed as inhibition of proliferation after 3 days by resazurin assay; format: functional, organism-based; conditions: 72 h
[10] = test system: Trypanosoma brucei brucei; test: Trypanocidal activity against bloodstream forms of Trypanosoma brucei brucei Lister 427 clone 221a overexpressing type I nitroreductase assessed as inhibition of proliferation after 3 days by resazurin assay in presence of tetracycline; format: functional, organism-based; conditions: 72 h
[11] = test system: Trypanosoma brucei rhodesiense; test: Antiparasitic activity against bloodstream forms of Trypanosoma brucei rhodesiense STIB 900 assessed as inhibition of growth after 72 hrs by resazurin assay; format: functional, organism-based; conditions: STIB 900, 72 h
[12] = Selectivity ratio of IC50 for trypomastigote forms of Trypanosoma cruzi Tulahuen C2C4 infected in rat L6 cells to IC50 for bloodstream forms of Trypanosoma brucei rhodesiense STIB 900; format: functional

Row | SMILES | selectivity ratio [1] | selectivity ratio [2] | IC50 (L6) [µM] | IC50 (Trypanosoma cruzi [3]) [µM] | Ratio IC50 (Trypanosoma cruzi [4]) | Ratio IC50 [5] | Kd [6] [µM] | selectivity ratio [7] | IC50 [8] [µM] | IC50 (Leishmania donovani) [µM] | IC50 [9] [µM] | IC50 [10] [µM] | IC50 [11] [µM] | Ratio IC50 [12]
1 | O=C(NCCCn1cnc([N+](=O)[O-])n1)c1ccc(C(F)(F)F)nc1 | > 82 | > 84 | > 291 | 3.46 | 0.5 |  |  |  |  |  |  |  |  | 
2 | O=[N+]([O-])c1ncn(CCCNS(=O)(=O)c2ccc(Cl)s2)n1 | 122 | 556 |  | 0.438 | 3.6 | 18.9 | 65.2 | 7 |  |  |  |  |  | 
3 | O=[N+]([O-])c1ncn(CCCCNS(=O)(=O)c2ccc(Cl)s2)n1 | 247 | 278 | 128 | 0.462 | 4.42 | 39.2 |  | 6 | 21.6 | 20 | 22.9 | 0.55 | 0.52 | 
4 | O=[N+]([O-])c1ncn(CCCNS(=O)(=O)c2cc(Cl)sc2Cl)n1 | 75 | 216 | 119 | 0.552 | 3.7 | 19.3 |  | 7 | 4.25 | 17.8 | 2.94 | 0.22 | 1.59 | 
5 | O=[N+]([O-])c1ncn(CCCNS(=O)(=O)c2cc(Cl)c(Cl)s2)n1 | 200 | 639 | 101 | 0.158 | 14.31 | 32.6 |  | 8 | 17 | 13.2 | 15.5 | 0.52 | 0.505 | 
6 | O=[N+]([O-])c1ncn(CCCCNS(=O)(=O)c2cc(Cl)c(Cl)s2)n1 | 447 | 261 | 97 | 0.373 | 6.07 | 2.4 |  | 9 | 0.46 | 10.6 | 0.61 | 0.19 | 0.218 | 
7 | O=[N+]([O-])c1nccn1CCCNS(=O)(=O)c1cc(Cl)sc1Cl | 3 | 15 | 108 | 6.99 | 0.32 |  |  | 8 |  | 13.1 |  |  | 40.3 | 
8 | O=[N+]([O-])c1nccn1CCCNS(=O)(=O)c1cc(Cl)c(Cl)s1 | 2 | 16 | 75 | 4.75 | 0.48 |  |  | 10 |  | 7.35 |  |  | 32.7 | 
9 | Cc1csc(C(=O)NCCCn2cnc([N+](=O)[O-])n2)c1 | 176 | 68 | 173 | 2.55 | 0.8 | 19.2 |  | 4 | 6.34 | 46.1 | 9.69 | 0.33 | 0.98 | 
10 | O=C(NCCCn1cnc([N+](=O)[O-])n1)c1ccsc1 | > 389 | > 89 | > 356 | 3.99 | 0.57 | 73 |  | > 5 | 21.2 | 71.2 | 26.8 | 0.29 | 0.915 | 
11 | O=C(NCCCCn1cnc([N+](=O)[O-])n1)c1ccsc1 | > 418 | > 194 | > 339 | 1.75 | 1.3 | 8 |  | > 12 | 2.49 | 27.7 | 3.02 | 0.31 | 0.81 | 
12 | Cc1cc(C(=O)NCCCn2cnc([N+](=O)[O-])n2)c(C)o1 | > 73 | > 39 | > 341 | 8.87 | 0.25 |  |  | > 3 |  | 132 |  |  | 4.71 | 
13 | Cc1ccoc1C(=O)NCCCn1cnc([N+](=O)[O-])n1 | > 22 | > 12 | > 358 | 30.4 | 0.07 |  |  | > 3 |  | 139 |  |  | 16.4 | 
14 | O=C(NCCCn1cnc([N+](=O)[O-])n1)c1ccnc(Cl)c1 | > 143 | > 24 | > 322 | 13.5 | 0.17 | 1.2 |  | > 4 | 6.99 | 82.4 | > 7.99 | 5.66 | 2.25 | 6
15 | O=C(NCCCn1cnc([N+](=O)[O-])n1)c1cc2ccccc2s1 | 665 | 425 | 124 | 0.293 | 7.72 | 18.4 |  | 8 | 1.29 | 14.7 | > 0.93 | 0.07 | 0.187 | 
16 | O=C(NCCCCn1cnc([N+](=O)[O-])n1)c1sc2ccccc2c1Cl | > 270 | > 1410 | > 264 | 0.187 | 12.09 | 3 |  | > 23 | 0.48 | 11.5 | 0.44 | 0.16 | 0.978 | 
17 | O=C(NCCCCn1cnc([N+](=O)[O-])n1)c1nc2ccccc2s1 | 89 | 364 | 154 | 0.422 | 5.36 | 3.9 |  | 6 | 1.39 | 27.7 | 1.36 | 0.36 | 1.73 | 
18 | Cc1nc([N+](=O)[O-])cn1CCCNS(=O)(=O)c1ccc(Cl)s1 | 6 | 3 | 261 | 102 | 0.02 |  |  |  |  |  |  |  | 47.2 | 
19 | Cc1nc([N+](=O)[O-])cn1CCCNC(=O)c1nc2ccccc2s1 | 2 | > 3 | > 290 | 105 | 0.01 |  |  |  |  |  |  |  | 173 | 
20 | Cc1nc([N+](=O)[O-])cn1CCCNC(=O)c1sc2ccccc2c1Cl | 5 | 6 | 189 | 32.2 | 0.05 |  |  |  |  |  |  |  | 39.4 | 
21 | O=C(Cn1ccnc1[N+](=O)[O-])NCc1ccccc1 [BENZNIDAZOLE] |  |  |  | 2.13 |  | 9.9 |  |  |  |  |  |  |  | 
22 | Nc1nc(N)nc(Nc2ccc([As]3SCC(CO)S3)cc2)n1 (stereo unspecified) [MELARSOPROL] |  |  |  |  |  | 1 |  |  |  |  | 0.006 |  |  | 
23 | CCCCCCCCCCCCCCCCOP(=O)([O-])OCC[N+](C)(C)C [MILTEFOSINE] |  |  |  |  |  |  |  |  |  | 0.39 |  |  |  | 
24 | CC1CS(=O)(=O)CCN1/N=C/c1ccc([N+](=O)[O-])o1 (stereo unspecified) [NIFURTIMOX] |  |  |  |  |  | 13.2 |  |  |  |  |  |  |  | 
